A short description of series [1]: Volume of distribution in steady state in female Sprague-Dawley rat at 2 mg/kg, iv measured up to 24 hrs by LC/MS-MS analysis. Format: ADME, organism-based. As to conditions: in vivo, read-out: Vdss.
In series [2] the test system is A549. Kind of series: Induction of autophagy in human A549 cells assessed as change in LC3 expression at 1 to 5 uM incubated for 48 hrs by Western blot analysis. Format: functional, cell-based.
Series [3] in a line: Volume of distribution in Sprague-Dawley rat at 2 mg/kg, iv measured up to 24 hrs by LC/MS-MS analysis. Format: ADME, organism-based. As to conditions: in vivo.
Series [4] in a line: Toxicity in athymic nude mouse xenografted with human A549 cells assessed as effect on lung morphological changes at 25 to 50 mg/kg, ip administered once daily for 21 days by H and E staining based assay. Format: organism-based. As to conditions: in vivo, 504 h. A general note: In xenograft studies the graft and the host belong to different species.
For series [5], the system named is A549. Kind of series: In vivo inhibition of eIF4E in human A549 cells xenografted in athymic nude mouse assessed as decrease in phosphorylation of eIF4E at 25 to 50 mg/kg, ip administered once daily for 21 days by immunocytochemistry. Format: functional, organism-based.
The nature of series [6]: Cmax in female Sprague-Dawley rat at 10 mg/kg, po measured up to 24 hrs by LC/MS-MS analysis. The following applies: in vivo. The arrangement: dose 10 mg/kg, route oral. Format: ADME, organism-based.
Series [7] is described as follows: Subacute toxicity in SPF Kunming mouse assessed as kidney morphological changes at 2000 mg/kg, po administered once a day for 14 days by H and E staining based microscopic analysis. Format: organism-based. The following applies: in vivo, 336 h.
Series [8] in a line: Toxicity in athymic nude mouse xenografted with human A549 cells assessed as effect on spleen morphological changes at 25 to 50 mg/kg, ip administered once daily for 21 days by H and E staining based assay. The following applies: in vivo, 504 h. Format: organism-based.
Series [9] relates to A549. Briefly: Induction of ROS generation in human A549 cells at 1 to 5 uM incubated for 48 hrs by DCFH-DA staining based FACS analysis. Format: functional, cell-based. (In flow cytometry, cells or beads pass a laser one at a time.)
Series [10] is described as follows: Subacute toxicity in SPF Kunming mouse assessed as body weight at 2000 mg/kg, po administered once a day for 7 days (reference value: 28.4g). Format: organism-based. As to conditions: in vivo, 168 h.

The source made the active and inactive calls. The rule behind the calls is not given here.

In the case of `Fc1ccc(/C=N/Nc2nc(-c3ccc(C(F)(F)F)cc3)cs2)cc1F`, the values for the Vd in series [1] and in series [3] were 0.19 L/kg and 0.67 L/kg, respectively. Besides, the outcome in series [2] and in [9] was Active. Moreover, the Activity result in series [4] is “Non-Toxic”; in series [7] it was “Non-Toxic”; in series [8], “Non-Toxic”; in series [10] it was 28 g. The inhibition result in [5] is “Active”. For the same molecule, the highest level in series [6] (Cmax) was 960 nM.

The values are drawn from ChEMBL document CHEMBL4393720, “Design, synthesis and biological evaluation of bromophenol-thiazolylhydrazone hybrids inhibiting the interaction of translation initiation factors eIF4E/eIF4G as multifunctional agents for cancer treatment” (Eur J Med Chem, 2019).
